From patent US7563791B2, “Pyrrolotriazine derivatives useful for treating hyper-proliferative disorders and diseases associated with angiogenesis” (Bayer Pharmaceuticals Corporation, priority 2004, dated 2009) come the findings set out here.

What all share (type): cell-based
In assay [1] the test system is FGFR stimulated HUVEC proliferation. In words: BRDU growth factor stimulated proliferation of HUVEC (bFGF stimulation). The settings on record: Homo sapiens, 72 h, 1.5 ng/ml bFGF, 3 days, BrdU incorporation. As to the method: (§1) BRDU Growth Factor Stimulated Proliferation of HUVEC
(§2) Exponentially growing human umbilical vein endothelial cells (HUVEC; Cat# CC-2519A, Cambrex, Walkersville, Md.) were seeded at two thousand cells/well into Collagen IV-coated 96 well plates (Cat#35-4429, Becton Dickinson, Bedford, Mass.) in assay media containing RPMI-1640 (Cat#11875-093, Gibco, Carlsbad, Calif.), 0.5% charcoal-stripped serum (Cat# SH30068.03, HyClone, Logan, Utah), and 1% N-2 supplement (Cat#17502-048, Gibco, Carlsbad, Calif.). Fours hours after incubating the plates at 37° C. in 5% CO2, the cells were treated with different concentrations of compound (diluted in assay media with a final DMSO concentration=0.1%) and then were immediately stimulated with 80 ng/ml of vascular endothelial growth factor (VEGF, Cat#100-20, PeproTech, Rocky Hill, N.J.) or 1.5 ng/ml of basic fibroblast growth factor (bFGF, Catt#100-18B, PeproTech, Rocky Hill, N.J.). Treated cells were incubated for 3 days at 37° C. in 5% CO2. DNA synthesis was measured via the incorporation of bromodeoxyuridine (BrdU) into newly synthesized DNA using the Amersham Cell Proliferation BioTrack ELISA system (Cat# RPN250, Amersham, Piscataway, N.J.). Diluted BrdU solution (20 μl of stock BrdU diluted 1:20 fold into assay media) was added to each well and incubation proceeded for 6 hours at 37° C. in 5% CO2. The media was removed and the cells were fixed according to the specifications of the Amersham assay kit for 30 minutes at room temperature. After removing the fixative, blocking buffer (supplied by Amersham kit; 200 μl/well) was added and the plates were stored at 4° C. overnight. The blocking buffer was aspirated and peroxidase-labeled anti-BrdU antibody (supplied by Amersham kit; 100 μl/well) was added and incubated for 3 hours at room temperature. The plates were washed three times with wash buffer (supplied by Amersham kit; 300 μl/well/wash). Immediately following the washes, 100 μl of the TMB-substrate was dispensed into each well and the plates were further incubated for 30 minutes at room temperature. The reaction was terminated by the addition of 25 μl of 1M H2SO4. Plates were read immediately at 450 nm using a SpectraMAX 250 spectrophotometer plate reader (Molecular Devices, Sunnyvale, Calif.). The software utilized was SoftMAX pro v.2.4.1.

Assay [2] concerns VEGF stimulated Phospho-ERK in HUVEC. In words: Growth factor stimulated p-ERK assay in HUVECs (VEGF stimulation, ERK1/2 Bioplex). Conditions: Homo sapiens, compound 2 hrs, then 50 ng/ml VEGF 10 min; for inhibition at 0.1 µM: @ 100 nM. Put shortly: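 HUVECs in serum-free RPMI 1640/0.1% BSA pretreated with compound 2 hrs, then stimulated 10 min with 50 ng/ml VEGF (or bFGF). Lysate phospho-ERK1/2 quantified by bead-based Bio-Plex immunoassay on Luminex.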

In a further assay the test system is HCT116 cells. The assay is described as follows: Tumor cell proliferation (Alamar Blue), HCT116. The settings on record: Homo sapiens, HCT-116, 72 h. As to the method: (§3) Human tumor cells (e.g., HCT116 or MDA-MB-231 cells), are seeded in a Costar 96-well plate at 3.0×10^3 cells/well and grown in 150 μl of RPMI complete media (Invitrogen Corporation, Grand Island, N.Y.) containing 10% fetal bovine serum (Hyclone, Logan, Utah) at 37° C. for 16 h in an incubator with 5% CO2. To each well, 50 μl of additional growth media containing 40 μM to 18 nM concentrations of compound with 0.4% DMSO is added. Cells are grown for another 72 h at 37° C. with 5% CO2. 20 μl of Alamar Blue (Trek Diagnostic Systems, Inc., Cleveland, Ohio) reagent is added to each well and incubated for 3 h at 37° C. Plates are read in a SpectraMax Gemini (Molecular Devices, Calif.) with 544 nm excitation and 590 nm emission wavelength. IC50 values are determined by linear regression analysis of log drug concentration versus percent inhibition.
Background: The colour change of resazurin is a common sign of viable cells or microbes.

For assay [3], the system named is VEGFR stimulated HUVEC proliferation. In words: BRDU growth factor stimulated proliferation of HUVEC (VEGF stimulation). The settings on record: Homo sapiens, 72 h, 80 ng/ml VEGF, 3 days, BrdU incorporation. As to the method: as §1, §2
The subject of the next assay is MDA-MB-231 cells. The assay is described as follows: Tumor cell proliferation (Alamar Blue), MDA-MB-231. The settings on record: Homo sapiens, MDA-MB-231, 72 h. As to the method: as §3

Turning to `Nc1ncnn2cc(CN3CCOCC3)c(-c3ccc(NC(=O)Nc4cc(C(F)(F)F)ccc4F)cc3)c12` [Example 30, N-{4-[4-amino-6-(morpholin-4-ylmethyl)pyrrolo[2,1-f][1,2,4]triazin-5-yl]phenyl}-N′-[2-fluoro-5-(trifluoromethyl)phenyl]urea], the half-maximal inhibitory concentration (IC50) in assay [1] is 100 to 500 nM; with HCT116 cells (bounds given in μM), 1.5 to 5 µM; in assay [3], 0.1 to 0.5 µM. Also, the inhibition at 0.1 µM in assay [2] was above 50%.
As for `COCc1cn2ncnc(N)c2c1-c1ccc(NC(=O)Nc2cc(C(F)(F)F)ccc2F)cc1` [Example 100, N-{4-[4-amino-6-(methoxymethyl)pyrrolo[2,1-f][1,2,4]triazin-5-yl]phenyl}-N′-[2-fluoro-5-(trifluoromethyl)phenyl]urea], the half-inhibitory concentration (IC50) in the assay on MDA-MB-231 cells (bounds given in μM) was 1.5 to 5 µM; with HCT116 cells (bounds given in μM), 1.5 to 5 µM; in assay [3] it was above 0.5 µM; in assay [3] (bound given in μM), below 2 µM. Moreover, the inhibition at 0.1 µM in assay [2] was below 50%. This compound also showed an inhibition at 1 µM in assay [2] (@ 1 μM) above 50%.
Take `COCc1cn2ncnc(N)c2c1-c1ccc(NC(=O)Nc2cc(C(F)(F)F)ccn2)cc1` [Example 101, N-{4-[4-amino-6-(methoxymethyl)pyrrolo[2,1-f][1,2,4]triazin-5-yl]phenyl}-N′-[4-(trifluoromethyl)pyridin-2-yl]urea]: the results for the 50% inhibitory concentration (IC50) in assay [1] and in assay [3] were below 100 nM and below 0.01 µM, respectively.
Consider `COCc1cn2ncnc(N)c2c1-c1ccc(NC(=O)Nc2cc(F)cc(C(F)(F)F)c2)cc1` [Example 102, N-{4-[4-amino-6-(methoxymethyl)pyrrolo[2,1-f][1,2,4]triazin-5-yl]phenyl}-N′-[3-fluoro-5-(trifluoromethyl)phenyl]urea], for which the 50% inhibitory concentration (IC50) with MDA-MB-231 cells (bounds given in μM) fell in the range of 5 to 10 µM; in assay [1], 100 to 500 nM; in the assay with HCT116 cells (bounds given in μM), 1.5 to 5 µM; in assay [3] it was 0.1 to 0.5 µM.
On to `N#Cc1cn2ncnc(N)c2c1-c1ccc(NC(=O)Nc2cc(F)cc(C(F)(F)F)c2)cc1` [Example 103, N-[4-(4-amino-6-cyanopyrrolo[2,1-f][1,2,4]triazin-5-yl)phenyl]-N′-[3-fluoro-5-(trifluoromethyl)phenyl]urea], for which the IC50 in the assay on MDA-MB-231 cells (bounds given in μM) is 5 to 10 µM; in assay [1], below 100 nM; in the assay with HCT116 cells (bounds given in μM) it was 5 to 10 µM; in assay [3] it was 0.01 to 0.1 µM.
For the compound `N#Cc1cn2ncnc(N)c2c1-c1ccc(NC(=O)Nc2ccc(F)c(C(F)(F)F)c2)cc1` [Example 151, N-[4-(4-amino-6-cyanopyrrolo[2,1-f][1,2,4]triazin-5-yl)phenyl]-N′-[4-fluoro-3-(trifluoromethyl)phenyl]urea], the IC50 was below 100 nM in assay [1] and 0.01 to 0.1 µM in assay [3].
On the same counts, the results for `N#Cc1cn2ncnc(N)c2c1-c1ccc(NC(=O)Nc2cccc(OC(F)(F)F)c2)cc1` [Example 152, N-[4-(4-amino-6-cyanopyrrolo[2,1-f][1,2,4]triazin-5-yl)phenyl]-N′-[3-(trifluoromethoxy)phenyl]urea] are 100 to 500 nM and 0.1 to 0.5 µM.
For the compound `Nc1ncnn2cc(-c3cnco3)c(-c3ccc(NC(=O)Nc4cc(C(F)(F)F)ccc4F)cc3)c12` [Example 155, N-{4-[4-amino-6-(1,3-oxazol-5-yl)pyrrolo[2,1-f][1,2,4]triazin-5-yl]phenyl}-N′-[2-fluoro-5-(trifluoromethyl)phenyl]urea], the IC50 in the assay on MDA-MB-231 cells was below 0.5 µM; in assay [1], 100 to 500 nM; in the assay with HCT116 cells it was below 0.5 µM; in assay [3], 0.01 to 0.1 µM.
As for `COCCOCc1cn2ncnc(N)c2c1-c1ccc(NC(=O)Nc2cc(C(F)(F)F)ccc2F)cc1` [Example 157, N-(4-{4-amino-6-[(2-methoxyethoxy)methyl]pyrrolo[2,1-f][1,2,4]triazin-5-yl}phenyl)-N′-[2-fluoro-5-(trifluoromethyl)phenyl]urea], the IC50 in the assay on MDA-MB-231 cells (bounds given in μM) is 1.5 to 5 µM; in assay [1], 100 to 500 nM; in the assay with HCT116 cells (bounds given in μM), 1.5 to 5 µM; in assay [3], 0.01 to 0.1 µM.
In the case of `Nc1ncnn2cc(-c3cnco3)c(-c3ccc(NC(=O)Nc4cc(F)cc(C(F)(F)F)c4)cc3)c12` [Example 159, N-{4-[4-amino-6-(1,3-oxazol-5-yl)pyrrolo[2,1-f][1,2,4]triazin-5-yl]phenyl}-N′-[3-fluoro-5-(trifluoromethyl)phenyl]urea], the 50% inhibitory concentration (IC50) with MDA-MB-231 cells was above 0.5 µM; in the assay with MDA-MB-231 cells (bounds given in μM), below 1.5 µM; in assay [1], 100 to 500 nM; in the assay on HCT116 cells, above 0.5 µM; in the assay on HCT116 cells (bounds given in μM), below 1.5 µM; in assay [3], 0.01 to 0.1 µM.
In the case of `Nc1ncnn2cc(-c3cnco3)c(-c3ccc(NC(=O)Nc4ccc(F)c(C(F)(F)F)c4)cc3)c12` [Example 162, N-{4-[4-amino-6-(1,3-oxazol-5-yl)pyrrolo[2,1-f][1,2,4]triazin-5-yl]phenyl}-N′-[4-fluoro-3-(trifluoromethyl)phenyl]urea], the IC50 in the assay with MDA-MB-231 cells (bounds given in μM) is 1.5 to 5 µM; in assay [1] it was 100 to 500 nM; in the assay on HCT116 cells, above 0.5 µM; with HCT116 cells (bounds given in μM) it was below 1.5 µM; in assay [3], 0.01 to 0.1 µM.
`Nc1ncnn2cc(-c3nnco3)c(-c3ccc(NC(=O)Nc4cc(C(F)(F)F)ccc4F)cc3)c12` [Example 163, N-{4-[4-amino-6-(1,3,4-oxadiazol-2-yl)pyrrolo[2,1-f][1,2,4]triazin-5-yl]phenyl}-N′-[2-fluoro-5-(trifluoromethyl)phenyl]urea]: the half-inhibitory concentration (IC50) was 1.5 to 5 µM in the assay on MDA-MB-231 cells (bounds given in μM), 1.5 to 5 µM in the assay with HCT116 cells (bounds given in μM), above 0.5 µM in assay [3] and below 2 µM in assay [3] (bound given in μM).
Take `CCOCc1cn2ncnc(N)c2c1-c1ccc(NC(=O)Nc2cc(C(F)(F)F)ccn2)cc1` [Example 218, N-{4-[4-amino-6-(ethoxymethyl)pyrrolo[2,1-f][1,2,4]triazin-5-yl]phenyl}-N′-[4-(trifluoromethyl)pyridine-2-yl]urea]: the IC50 was 5 to 10 µM in the assay on MDA-MB-231 cells (bounds given in μM), 100 to 500 nM in assay [1], 5 to 10 µM in the assay on HCT116 cells (bounds given in μM) and below 0.01 µM in assay [3].
In the case of `CC(=O)c1cn2ncnc(N)c2c1-c1ccc(NC(=O)Nc2cc(C(F)(F)F)ccc2F)cc1` [Example 223, N-[4-(6-acetyl-4-aminopyrrolo[2,1-f][1,2,4]triazin-5-yl)phenyl]-N′-[2-fluoro-5-(trifluoromethyl)phenyl]urea], the half-inhibitory concentration (IC50) in the assay with MDA-MB-231 cells was above 0.5 µM; with MDA-MB-231 cells (bounds given in μM), below 1.5 µM; in assay [1], below 100 nM; in the assay on HCT116 cells it was above 0.5 µM; in the assay on HCT116 cells (bounds given in μM), below 1.5 µM; in assay [3] it was 0.01 to 0.1 µM.
`N#CCc1cn2ncnc(N)c2c1-c1ccc(NC(=O)Nc2cc(C(F)(F)F)ccn2)cc1` [Example 226, N-{4-[4-amino-6-(cyanomethyl)pyrrolo[2,1-f][1,2,4]triazin-5-yl]phenyl}-N′-[4-(trifluoromethyl)pyridin-2-yl]urea]: the half-inhibitory concentration (IC50) is 1.5 to 5 µM in the assay with MDA-MB-231 cells (bounds given in μM), 100 to 500 nM in assay [1], 1.5 to 5 µM with HCT116 cells (bounds given in μM) and below 0.01 µM in assay [3].
`CC(=O)c1cn2ncnc(N)c2c1-c1ccc(NC(=O)Nc2cc(C(F)(F)F)ccn2)cc1` [Example 233, N-[4-(6-acetyl-4-aminopyrrolo[2,1-f][1,2,4]triazin-5-yl)phenyl]-N′-[4-(trifluoromethyl)pyridin-2-yl]urea]: the half-maximal inhibitory concentration (IC50) in the assay on MDA-MB-231 cells (bounds given in μM) lay within 1.5 to 5 µM; in assay [1], 100 to 500 nM; in the assay on HCT116 cells (bounds given in μM), 1.5 to 5 µM; in assay [3], 0.01 to 0.1 µM.

As usually defined, the IC50 is the concentration at which inhibition is half-maximal. The term inhibition denotes the change of the read-out against control, counted positive when it falls. A higher inhibition goes with a response far below the control.
